Experiments:
[1] = system: FcγIII; assay: Inhibition of FcR binding, reverse ELISA with PAP immune complexes; conditions: PAP pre-incubated with peptide one hour, one hour on FcγR coated plates; lower OD = more inhibition; positive control 1.588
Description: (§1) For this reason, a “reverse ELISA” technique was used to assess binding of the Fc region to ligands that bind to immune complexed IgG Fc. In a reverse ELISA, the enzyme (e.g., HRP) is not covalently conjugated to the Fc portion of the secondary antibody. Rather, a preformed immune complex of peroxidase-rabbit (or mouse) anti-peroxidase IgG (“PAP” complex) is used. […] In these experiments, an Fc CH2-CH3 cleft binding ligand (e.g., purified human C1q) was bound to microwell plates. In the absence of competitor, PAP complexes bound to the immobilized ligand and the reaction between HRP and its substrate produced a signal. This signal was reduced by polypeptides and compounds provided herein that inhibited PAP binding to the immobilized ligand.
(§2) Once the reverse ELISA protocol was established using the C1q assay, the assay was redesigned using […], FcγIIb, and FcγIII in place of C1q. Highly purified FcγIIa, FcγIIb and FcγIII were immunoadsorbed onto plastic microwells. After optimizing the FcγR reverse ELISA system, simple competitive inhibition experiments using polypeptides provided herein were conducted to investigate their ability to inhibit binding of immune complexes to purified FcγR.
(§3) Falcon microtiter plates were coated with 1:10 dilutions of highly purified FcγIIa, FcγIIb and FcγIII and incubated for 24 hours. The plates were washed and then blocked with 5×BSA blocking solution (Alpha Diagnostic International, San Antonio, Tex.) for 24 hours. PAP immune complexes were formed as described above. PAP (100 μl) were pre-incubated with 100 μl of peptide for one hour. PAP/peptide mixtures were added to the FcγR coated plates and incubated for one hour. After washing, plates were incubated with ABTS substrate for 15 minutes and read at 405 nm.

[2] = system: FcγIIb; assay: as above; conditions: PAP pre-incubated with peptide one hour, one hour on FcγR coated plates; lower OD = more inhibition; positive control 1.394
Description: as §1, §2, §3

[3] = system: purified human C1q; assay: Inhibition of C1q binding, reverse ELISA with PAP immune complexes; conditions: for inhibition of C1q binding, ranking in words: comment on Table 1
Description: as §1
PAP complexes were formed mixing 2 μl of rabbit anti-peroxidase (Sigma Chemicals, St. Louis, Mo.) with 50 μl of peroxidase (Sigma-Aldrich, St. Louis, Mo.) in 1 ml distilled water. PAP (100 μl) were pre-incubated with 100 μl of peptide for one hour, 100 μl were pre-incubated with 100 μl of peptide or human C1q (Quidel Corp., San Diego, Calif.) for one hour. The C1q/PAP and peptide/PAP mixtures (100 μl) were incubated with C1q coated plates for 30 minutes. After washing, plates were incubated with ATBS (Quidel Corp.) for 15 minutes and read at 405 nm.

[4] = system: IgG Fc; assay: Binding of SEQ ID NO:16 to IgG Fc, alanine substitution; conditions: alanine substitution of SEQ ID NO:16 Val-13 or Trp-14
[5] = system: FcR; assay: Inhibition of FcR binding to PAP; conditions: comment on Table 2
Procedure: as §2, §3

[6] = system: human wt β amyloid peptide 1-40; assay: Inhibition of immune complexed IgG binding to wt β-amyloid peptide, reverse ELISA; conditions: for Wt 1-40 β-amyloid peptide (read at 405 nm): PAP pre-incubated with peptide one hour, 60 minutes on β-amyloid coated plates (33 μg/ml), positive control 3.278, substrate only 0.061
Description: as §1
Different fragments of the Aβ peptide contribute to the amyloid plaques pathognomic for AD, and these Aβ fragments appear to stimulate microglial activation and subsequent AD neuropathology. Thus, experiments were conducted to test Aβ 1-40 for binding to immune complexes, and to determine whether the inhibitors described herein can inhibit binding of PAP immune complexes to Aβ peptide. PAP complexes were prepared by mixing 2 μl of rabbit anti-peroxidase with 50 μl of peroxidase in 1 ml distilled water. PAP (100 μl) were pre-incubated with 100 μl of peptide for one hour. Control PAP (200 μl) also were incubated for one hour, and 100 μl of either PAP or PAP/peptide was added to Falcon microtiter plates that had been coated for 24 hours with 33 μg/ml human wt β amyloid peptide 1-40 (amyloid precursor protein (APP) fragment 1-40; Sigma-Aldrich) having the sequence […]Ans-Lys-Gly-Ale-[…](SEQ ID NO:39). The PAP or peptide/PAP mixtures were incubated on the β-amyloid peptide coated plates for 60 minutes. After washing, plates were incubated with ATBS for 15 minutes and read at 405 nm.

[7] = system: human wt tau protein (441 residues); assay: Inhibition of immune complexed IgG binding to wt tau, reverse ELISA; conditions: for Wt tau protein (read at 405 nm): PAP pre-incubated with peptide one hour, 60 minutes on tau coated plates (16.7 μg/ml), positive control 0.695, substrate only 0.060
Description: as §1
PAP complexes were formed by mixing 2 μl of rabbit anti-peroxidase with 50 μl of peroxidase in 1 ml distilled water. PAP (100 μl) were pre-incubated with 100 μl of peptide for one hour. Control PAP (200 μl) also was incubated for one hour. 100 μl of either PAP or PAP/peptide was added to Falcon microtiter plates that had been coated for 24 hours with 16.7 μg/ml human wt tau protein (441 residues; Sigma-Aldrich). The PAP or peptide/PAP mixtures (100 μl) were added after one hour to tau coated plates and incubated for 60 minutes. After washing, plates were incubated with ATBS for 15 minutes, and read at 405 nm.

[8] = system: FcγIIa; assay: Inhibition of FcR binding, reverse ELISA with PAP immune complexes; conditions: PAP pre-incubated with peptide one hour, one hour on FcγR coated plates; lower OD = more inhibition; positive control 1.599
Description: as §1, §2, §3

Sequence | FcγIII (read at 405 nm) [1] | FcγIIb (read at 405 nm) [2] | inhibition of C1q binding, ranking in words [3] | Wt 1-40 β-amyloid peptide (read at 405 nm) [6] | Wt tau protein (read at 405 nm) [7] | also measured
APPCAFHLGELVWCT | 0.880 | 0.380 |  |  |  | 
APPCARHLGELVWCT |  |  | next best result |  |  | 
APPCAWHLGELVWCT | 0.530 |  |  |  |  | 
APPDCAWHLGELVWCT | 0.670 |  | greatest inhibition of C1q binding, almost equaling C1q itself | 0.885 | 0.059 | ΔΔG, disruption of binding [4]: ≥ 2.0 kcal/mol; inhibition of FcR binding to PAP, ranking in words [5]: greatest inhibition; inhibition of human wt tau protein binding to PAP, ranking in words ([7]; comment on Table 3): greatest inhibition
DCAFHLGELVWCT | 0.810 | 0.510 |  |  |  | FcγIIa (read at 405 nm) [8]: 0.660
DCAWHLGELVWCT |  |  |  | 0.151 | 0.322 | OD 405 nm ([3]; PAP pre-incubated with peptide or C1q for one hour, 30 minutes on C1q coated plates, lower OD = more inhibition, positive control 2.355): 1.100; inhibition of human wt β amyloid peptide binding to PAP, ranking in words ([6]; comment on Table 4): greatest inhibition

From patent US20080207498A1, “Methods for Treating Alzheimer's Disease” (priority 2005, published 2008)
